The values that follow come from ChEMBL document CHEMBL5104143, “Synthesis and evaluation of hydrazinyl-containing pyrrolo[2,3-d]pyrimidine series as potent, selective and oral JAK1 inhibitors for the treatment of rheumatoid arthritis” (Bioorg Med Chem Lett, 2022).

Molecules are shown by their SMILES.

In experiment [1] the target is Tyrosine-protein kinase JAK1 (Homo sapiens, UniProt P23458). Put plainly: Inhibition of JAK1 (unknown origin).
Experiment [2] deals with Tyrosine-protein kinase JAK2 (Homo sapiens, UniProt O60674).
Description: Inhibition of JAK2 (unknown origin)
Experiment [3] deals with T1, Tyrosine-protein kinase JAK3 (Homo sapiens, UniProt P52333).
T1 sequence (P52333 whole entry): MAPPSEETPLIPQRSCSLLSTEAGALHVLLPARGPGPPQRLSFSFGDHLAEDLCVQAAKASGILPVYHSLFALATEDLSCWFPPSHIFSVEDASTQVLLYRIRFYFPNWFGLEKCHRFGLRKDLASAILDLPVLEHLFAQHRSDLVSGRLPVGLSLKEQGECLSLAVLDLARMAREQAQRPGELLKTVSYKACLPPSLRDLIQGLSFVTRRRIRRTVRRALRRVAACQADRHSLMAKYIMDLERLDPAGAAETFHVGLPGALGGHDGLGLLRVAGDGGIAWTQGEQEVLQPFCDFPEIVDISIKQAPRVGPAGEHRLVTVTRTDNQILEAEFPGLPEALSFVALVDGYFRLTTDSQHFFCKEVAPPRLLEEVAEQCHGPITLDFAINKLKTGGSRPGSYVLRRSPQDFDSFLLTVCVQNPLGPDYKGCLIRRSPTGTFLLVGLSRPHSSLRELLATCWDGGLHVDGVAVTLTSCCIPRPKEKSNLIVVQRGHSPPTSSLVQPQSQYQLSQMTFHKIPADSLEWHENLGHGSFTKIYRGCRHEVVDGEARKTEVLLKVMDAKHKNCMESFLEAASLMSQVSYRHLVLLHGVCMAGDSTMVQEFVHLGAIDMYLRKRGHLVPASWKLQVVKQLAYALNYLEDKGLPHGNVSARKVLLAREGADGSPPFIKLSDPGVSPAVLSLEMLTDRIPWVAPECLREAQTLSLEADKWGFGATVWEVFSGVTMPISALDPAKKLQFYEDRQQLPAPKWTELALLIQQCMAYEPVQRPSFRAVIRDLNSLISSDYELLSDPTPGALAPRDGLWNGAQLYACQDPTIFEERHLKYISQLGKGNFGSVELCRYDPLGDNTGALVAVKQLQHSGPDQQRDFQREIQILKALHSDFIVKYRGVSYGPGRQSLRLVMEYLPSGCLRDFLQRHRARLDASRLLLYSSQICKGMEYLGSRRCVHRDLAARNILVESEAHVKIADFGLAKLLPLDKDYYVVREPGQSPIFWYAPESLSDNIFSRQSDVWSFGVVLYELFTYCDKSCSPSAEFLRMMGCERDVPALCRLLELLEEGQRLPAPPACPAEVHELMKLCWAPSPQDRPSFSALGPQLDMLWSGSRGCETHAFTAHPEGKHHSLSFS
Description: Inhibition of JAK3 (unknown origin)

Chain of Tyrosine-protein kinase JAK1 (P23458 whole entry): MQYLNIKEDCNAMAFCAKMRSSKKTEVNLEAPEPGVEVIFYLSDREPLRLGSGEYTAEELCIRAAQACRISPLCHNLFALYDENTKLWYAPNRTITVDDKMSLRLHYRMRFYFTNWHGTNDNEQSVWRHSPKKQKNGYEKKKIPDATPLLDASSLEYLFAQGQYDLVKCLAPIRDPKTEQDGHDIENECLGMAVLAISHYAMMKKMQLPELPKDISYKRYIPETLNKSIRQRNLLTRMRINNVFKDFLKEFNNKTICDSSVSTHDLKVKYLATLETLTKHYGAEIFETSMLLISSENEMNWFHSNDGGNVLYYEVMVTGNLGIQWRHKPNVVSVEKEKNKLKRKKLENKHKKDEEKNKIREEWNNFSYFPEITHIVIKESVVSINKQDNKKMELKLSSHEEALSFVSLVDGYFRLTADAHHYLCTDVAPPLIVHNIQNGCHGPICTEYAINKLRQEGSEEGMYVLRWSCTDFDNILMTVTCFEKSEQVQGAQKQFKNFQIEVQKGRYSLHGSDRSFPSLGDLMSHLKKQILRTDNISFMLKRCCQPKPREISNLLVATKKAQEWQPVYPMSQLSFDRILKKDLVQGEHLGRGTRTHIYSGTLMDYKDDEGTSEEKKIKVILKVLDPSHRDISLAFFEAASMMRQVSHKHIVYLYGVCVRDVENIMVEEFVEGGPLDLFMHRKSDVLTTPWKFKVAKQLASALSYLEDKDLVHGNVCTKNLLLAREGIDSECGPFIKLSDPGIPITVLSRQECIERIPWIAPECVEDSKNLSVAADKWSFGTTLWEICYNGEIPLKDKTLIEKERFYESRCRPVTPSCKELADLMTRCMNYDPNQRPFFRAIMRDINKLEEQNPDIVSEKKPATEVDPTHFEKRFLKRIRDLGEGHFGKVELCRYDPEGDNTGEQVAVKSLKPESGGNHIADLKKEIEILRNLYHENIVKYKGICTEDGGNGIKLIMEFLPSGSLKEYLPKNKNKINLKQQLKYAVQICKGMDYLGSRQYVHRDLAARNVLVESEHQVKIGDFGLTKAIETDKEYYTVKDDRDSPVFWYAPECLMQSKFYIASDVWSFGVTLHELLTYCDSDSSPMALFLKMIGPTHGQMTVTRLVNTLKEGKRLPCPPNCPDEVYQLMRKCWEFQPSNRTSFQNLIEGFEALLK
Chain of Tyrosine-protein kinase JAK2 (O60674 whole entry): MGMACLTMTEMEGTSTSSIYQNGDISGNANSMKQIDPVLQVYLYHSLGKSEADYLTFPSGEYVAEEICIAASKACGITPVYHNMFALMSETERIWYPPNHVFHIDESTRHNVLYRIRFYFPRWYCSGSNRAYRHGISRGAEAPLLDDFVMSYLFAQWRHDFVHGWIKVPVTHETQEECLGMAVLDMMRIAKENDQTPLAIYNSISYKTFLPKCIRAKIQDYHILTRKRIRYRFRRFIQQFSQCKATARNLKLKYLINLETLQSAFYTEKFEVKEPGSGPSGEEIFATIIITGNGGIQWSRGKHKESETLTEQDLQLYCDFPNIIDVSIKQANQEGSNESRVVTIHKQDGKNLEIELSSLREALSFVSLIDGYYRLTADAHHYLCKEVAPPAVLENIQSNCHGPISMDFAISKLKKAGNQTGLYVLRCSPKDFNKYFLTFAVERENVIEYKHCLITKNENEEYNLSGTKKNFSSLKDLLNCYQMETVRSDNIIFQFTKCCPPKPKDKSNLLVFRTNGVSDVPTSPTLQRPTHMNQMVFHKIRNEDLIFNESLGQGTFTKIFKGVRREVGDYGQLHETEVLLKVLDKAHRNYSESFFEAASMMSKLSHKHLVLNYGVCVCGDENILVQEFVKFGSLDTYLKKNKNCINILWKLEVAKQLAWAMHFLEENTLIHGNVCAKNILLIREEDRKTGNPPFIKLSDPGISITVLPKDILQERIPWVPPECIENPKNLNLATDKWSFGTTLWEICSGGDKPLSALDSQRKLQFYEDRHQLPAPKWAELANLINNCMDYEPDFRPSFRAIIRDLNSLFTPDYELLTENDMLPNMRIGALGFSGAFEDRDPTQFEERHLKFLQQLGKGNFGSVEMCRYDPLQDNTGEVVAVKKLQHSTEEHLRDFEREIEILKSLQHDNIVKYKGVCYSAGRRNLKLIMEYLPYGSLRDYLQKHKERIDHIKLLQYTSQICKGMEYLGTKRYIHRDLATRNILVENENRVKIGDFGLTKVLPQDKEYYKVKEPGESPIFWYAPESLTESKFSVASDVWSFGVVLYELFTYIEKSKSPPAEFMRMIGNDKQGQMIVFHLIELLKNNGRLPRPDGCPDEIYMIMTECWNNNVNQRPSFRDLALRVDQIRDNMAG

With `CN(c1ncnc2[nH]ccc12)N1CCC(C(=O)NCC#N)C1` (configuration not stated), the IC50 in experiment [1] stood at 3.3 nM; in experiment [2], 43 nM; in experiment [3], 25.1 nM.
Consider `CN(c1ncnc2[nH]ccc12)N1CCC(C(=O)NCC#N)CC1`, for which the figures for the IC50 in experiment [1], in experiment [2] and in experiment [3] were 12 nM, 272 nM and 287 nM, respectively.
For `CN(c1ncnc2[nH]ccc12)N1CCC[C@@H](C(=O)NCC(F)(F)F)C1`, in that order: 0.7 nM, 13 nM and 6.2 nM.
For `CN(c1ncnc2[nH]ccc12)N1CCCC(C(=O)NCC#N)C1` (configuration not stated), in that order: 1.6 nM, 11.6 nM and 8 nM.
With `COCNC(=O)C1CCCN(N(C)c2ncnc3[nH]ccc23)C1` (configuration not stated), the IC50 amounted to 21.3 nM in experiment [1], 148 nM in experiment [2] and 83.2 nM in experiment [3].
In the same order, the values of `CN(c1ncnc2[nH]ccc12)N1CCC[C@@H](C(=O)NCC#N)C1` are 0.3 nM, 3.6 nM and 3.9 nM.
For `CN(c1ncnc2[nH]ccc12)N1CCC(C(=O)NCC(F)(F)F)CC1`, in that order: 14 nM, 316 nM and 186 nM.
For `CN(c1ncnc2[nH]ccc12)N1CCCN(C(=O)CC(F)(F)F)CC1`, in that order: 10000 nM, 10000 nM and 10000 nM.
For `CC1CCC(C(=O)NCC(F)(F)F)CN1N(C)c1ncnc2[nH]ccc12` (configuration not stated), the results for the IC50 in experiment [1], in experiment [2] and in experiment [3] were 309 nM, 2000 nM and 339 nM, respectively.
In the same order, the values of `CN(c1ncnc2[nH]ccc12)N1CCCC(C(=O)N2CC(O)C2)C1` (configuration not stated) are 155 nM, 817 nM and 518 nM.
In the same order, the values of `CN(c1ncnc2[nH]ccc12)N1CCCC(C(=O)NCC(F)(F)F)C1` (configuration not stated) are 2.9 nM, 33.2 nM and 16.1 nM.
In the same order, the values of `CN(c1ncnc2[nH]ccc12)N1CC[C@@H](C(=O)NCC(F)(F)F)C1` are 0.16 nM, 8.5 nM and 15 nM.
In the case of `CN(c1ncnc2[nH]ccc12)N1CC[C@H](C(=O)NCC(F)(F)F)C1`, the IC50 came out at 18 nM in experiment [1], 361 nM in experiment [2] and 13 nM in experiment [3].
In the case of `CN(c1ncnc2[nH]ccc12)N1CCC(C(=O)NCC(F)(F)F)C1` (configuration not stated), the IC50 in experiment [1] was found to be 1.9 nM; in experiment [2], 36 nM; in experiment [3], 29 nM.
For `CC1CCC(C(=O)NCC#N)CN1N(C)c1ncnc2[nH]ccc12` (configuration not stated), in that order: 521 nM, 1430 nM and 362 nM.
In the same order, the values of `CN(c1ncnc2[nH]ccc12)N1CCC(C)(C(=O)NCC(F)(F)F)C1` (configuration not stated) are 5020 nM, 10000 nM and 5970 nM.
For `CN(c1ncnc2[nH]ccc12)N1CCCC(C(=O)NCC(F)F)C1` (configuration not stated), in that order: 1.6 nM, 16.1 nM and 8.3 nM.
As for `CN(c1ncnc2[nH]ccc12)N1CCCC(C)(C(=O)NCC#N)C1` (configuration not stated), the IC50 came out at 1860 nM in experiment [1], 4800 nM in experiment [2] and 1580 nM in experiment [3].
For `CN(CC(F)(F)F)C(=O)C1CCCN(N(C)c2ncnc3[nH]ccc23)C1` (configuration not stated), in that order: 15.1 nM, 165 nM and 77.4 nM.
For `CN(c1ncnc2[nH]ccc12)N1CCCC(C(=O)NCCC#N)C1` (configuration not stated), the IC50 in experiment [1] turned out to be 35 nM; in experiment [3], 188 nM.
In the case of `CN(c1ncnc2[nH]ccc12)N1CCCC(N2CCCC2=O)C1` (configuration not stated), the IC50 in experiment [1] stood at 1120 nM; in experiment [2] it was 3500 nM; in experiment [3], 349 nM.
